Experimental data published in US10500207B2, “Compounds for the treatment of diseases associated with amyloid or amyloid-like proteins” (AC Immune SA, priority 2010, dated 2019).

Target: Aβ1-42 peptide (Homo sapiens, UniProt P05067)
Assay: Thioflavin T spectrofluorescence assay (ThT-assay): inhibition of Aβ1-42 aggregation (% inhibition at 330 μM; IC50 from dilution series)
Settings: 24 h, read-out: Inhibition at 330 μM [%], ThT assay; 330 μM small molecule, 33 μM Aβ1-42 (10:1), 24 hrs at 37° C.; mean ± standard deviation of two independent experiments
Experimental: Aβ1-42 lyophilized powder (Bachem) was reconstituted in hexafluoroisopropanol (HFIP) to 1 mM. The peptide solution was sonicated for 15 min at room temperature, agitated overnight, and aliquots were made into non-siliconized microcentrifuge tubes. The HFIP was then evaporated under a stream of argon. The resulting peptide film was dried under vacuum for 10 min, tightly sealed and stored at −80° C. until used.
A positive control without a small molecule was prepared to measure maximum RFU. A negative control without Aβ1-42 was prepared for each small molecule. […] The solutions were then incubated for 24 hrs at 37° C., and the spectrofluorescence (relative fluorescence units; RFU) were read in six replicates in black 384-well assay plates (Perkin-Elmer) on a Perkin-Elmer FluoroCount spectrofluorometer. The inhibition of aggregation is expressed as mean % inhibition±1 standard deviation (SD) according to the following equation:
Racemic compounds and their enantiomers were tested for their ability to inhibit amyloid peptide aggregation using the ThT assay. To determine the IC50, the following dilutions of the compounds were used in the ThT assay described above:

Aβ1-42 peptide, sequence (P05067 672-713 limits assumed): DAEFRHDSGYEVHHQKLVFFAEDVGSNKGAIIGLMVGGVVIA

| inhibition at 330 µM [%] | Compound |
| --- | --- |
| 43.2 ± 12.9 | Cn1c2c(c3ccc(Nc4ccc(F)c(F)c4)cc31)CN(CCCCS(C)(=O)=O)CC2 [Example 210] |
| 79.2 ± 16.2 | N#Cc1c[nH]c2nc(Nc3cnc4c(C5CCNCC5)c[nH]c4c3)ccc12 [Example 34] |
| 92.4 ± 4 | Cn1c2c(c3ccc(Nc4ccc5c(c4)OCO5)nc31)CCCC2 [Example 169] |
| 32.7 ± 0.9 | Cn1c2c(c3ccc(N4CCOCC4)nc31)CCCC2 [Example 163] |
| 96 ± 2.7 | CN(c1ccc2c(c1)c(C1CCNCC1)cn2C)c1ccc2c(C3CCNCC3)cn(C)c2c1 [Example 54] |
| 64.8 ± 3.7 | CC(=O)Nc1cccc(Nc2ccc3c(C4CCNCC4)c[nH]c3n2)c1 [Example 143] |
| 99.4 | c1cc2c(C3CCNCC3)c[nH]c2cc1Nc1ccc2c3c([nH]c2n1)CCC3 [Example 46] |
| 96.5 ± 3.7 | c1nc2[nH]cc(C3CCNCC3)c2cc1Nc1ccc2c3c([nH]c2n1)CCCC3 [Example 45] |
| 12.6 ± 5.5 | CN1CCN(C(=O)c2ccc(Nc3ccc(F)cc3)cc2)CC1 [Example 189] |
| 83.3 ± 3.3 | CNC1CCc2c(c3cc(Nc4ccc5c(c4)OCCO5)cnc3n2C)C1 (stereo not shown) [Example 137] |
| 79.9 ± 0.6 | COc1ccc(Nc2ccc3c4c(n(C)c3n2)CCC(OCCF)C4)cc1OC (stereo not shown) [Example 129] |
| 93.4 ± 3.5 | CC(C)OC1CCc2c(c3ccc(Nc4ccc5c(c4)OCCO5)nc3n2C)C1 (stereo not shown) [Example 203] |
| 90.9 ± 2.7 | Cn1cc(C2CCNCC2)c2ccc(Nc3ccc(F)c(F)c3)cc21 [Example 38] |
| 78.1 ± 0.2 | Cn1c2c(c3ccc(Nc4ccc(N5CCOCC5)cc4)nc31)CCCC2 [Example 165] |
| 86.8 ± 1.9 | CNC1CCc2[nH]c3ccc(Nc4ccc(OC)c(F)c4)cc3c2C1 (stereo not shown) [Example 107] |
| 90.4 ± 5.3 | CN1CCC(c2c[nH]c3cc(Nc4ccc5[nH]cc(C6CCNCC6)c5c4)ccc23)CC1 [Example 68] |
| 83.3 ± 6 | c1cc(N2CCOCC2)ccc1Nc1ccc2c(c1)OCO2 [Example 188] |

| inhibition at 330 µM [%] | Compound |
| --- | --- |
| 82.1 ± 7 | Cn1c2c(c3ccc(Nc4ccc5c(c4)NC(=O)CO5)nc31)CCCC2 [Example 168] |
| 74 ± 2.7 | CN1CCC(c2c[nH]c3ccc(Nc4ccc(F)c(F)c4)cc23)CC1 [Example 21] |
| 96.5 ± 0.6 | CNC1CCc2[nH]c3nc(Nc4ccc5c(C6CCNCC6)c[nH]c5c4)ccc3c2C1 (stereo not shown) [Example 31] |
| 70.8 ± 2.3 | CC(=O)N1CCN(c2ccc(Nc3ccc4c5c(n(C)c4n3)CCCC5)cc2)CC1 [Example 170] |
| 106.1 ± 0.3 | CN1CCC(c2c[nH]c3cc(Nc4ccc5c(c4)OCCN5C)ccc23)CC1 [Example 194] |
| 30.2 ± 0.9 | Cn1c2c(c3cc(Nc4ccc(C(F)(F)F)nc4)ccc31)CS(=O)(=O)CC2 [Example 179] |
| 84.4 ± 4.1 | CN1CCC(c2cn(C)c3nc(Nc4ccc5c(c4)OCO5)ccc23)CC1 [Example 149] |
| 92.5 ± 1.3 | COc1ccc(Nc2ccc3c(C4CCN(C)CC4)c[nH]c3c2)cc1OC [Example 91] |
| 20.1 ± 4.6 | CN1CCN(C(=O)c2ccc(Nc3ccc4c(c3)OCO4)cc2)CC1 [Example 190] |
| 85.1 ± 0.8 | Cn1cc(C2CCNCC2)c2ccc(Nc3ccc4c(c3)OCO4)nc21 [Example 66] |
| 97.1 ± 2 | CN1CCC(c2cn(C)c3cc(Nc4cccc(N5CCOCC5)c4)ccc23)CC1 [Example 75] |
| 82.2 ± 2.2 | COC1CCc2c(c3cc(Nc4ccc5c(c4)OCCO5)ccc3n2C)C1 (stereo not shown) [Example 126] |
| 83 ± 2.1 | FC(F)(F)c1ccc(Nc2ccc3c(C4CCNCC4)c[nH]c3n2)cn1 [Example 61] |
| 66.1 ± 6.9 | CN1CCN(c2ccc(Nc3ccc4c(c3)c3c(n4C)CCS(=O)(=O)C3)cc2)CC1 [Example 182] |
| 99.2 ± 0.3 | CNC1CCc2c(c3ccc(Nc4ccc(OC)c(OC)c4)cc3n2C)C1 (stereo not shown) [Example 133] |
| 98 ± 0.5 | c1cc2c(cc1Nc1ccc3c(C4CCNCC4)c[nH]c3c1)OCO2 [Example 41] |
| 74.7 ± 6.8 | c1cc2ccc(Nc3ccc4cc[nH]c4n3)nc2[nH]1 [Example 8] |

The remaining lines, values behind:

| Compound | inhibition at 330 µM [%] |
| --- | --- |
| COc1ccc(Nc2ccc3c(C4CCNCC4)cn(C)c3c2)cc1OC [Example 97] | 83.8 ± 3.7 |
| CN1CCc2c(c3cc(Nc4ccc(F)c(F)c4)ccc3n2C)C1 [Example 206] | 94.5 ± 0.7 |
| COc1ccc(Nc2ccc3c(c2)c2c(n3C)CCC(OC)C2)cc1OC (stereo not shown) [Example 121] | 91 ± 2.5 |
| CN1CCC(c2c[nH]c3cc(Nc4ccc5[nH]cc(C6CCN(C)CC6)c5c4)ccc23)CC1 [Example 118] | 96.8 ± 0.9 |
| CNC1CCc2c(c3ccc(Nc4ccc5c(c4)CN(C)CC5)nc3n2C)C1 (stereo not shown) [Example 158] | 87.8 ± 3.6 |
| CNC1CCc2c(c3ccc(Nc4ccc5c(c4)OCCCO5)nc3n2C)C1 (stereo not shown) [Example 84] | 91.7 ± 0.2 |
| Cn1cc(C2CCNCC2)c2ccc(Nc3ccc4c(c3)OCO4)cc21 [Example 145] | 88.3 ± 4.9 |
| Cn1cc(C2CCNCC2)c2ccc(Nc3ccc4ocnc4c3)cc21 [Example 111] | 99.5 ± 0.1 |
| FC(F)(F)c1ccc(Nc2ccc3c(C4CCNCC4)c[nH]c3c2)cn1 [Example 49] | 81.9 ± 0.6 |
| COC1CCc2c(c3ccc(Nc4ccc(F)c(F)c4)nc3n2C)C1 (stereo not shown) [Example 204] | 93.5 ± 0.4 |
| Cn1cc(C2CCNCC2)c2ccc(Nc3cccc(N4CCOCC4)c3)cc21 [Example 70] | 91 ± 1.2 |
| Cn1c2c(c3cc(Nc4ccc(N5CCOCC5)cc4)ccc31)CS(=O)(=O)CC2 [Example 184] | 41.3 ± 1.1 |
| c1ccc(CNc2ccc3cc[nH]c3n2)nc1 [Example 2] | 47.4 ± 8.9 |
| CNC1CCc2c(c3ccc(Nc4cccc(N5CCN(C)CC5)c4)nc3n2C)C1 (stereo not shown) [Example 80] | 83.3 ± 0.1 |
| c1cc2c(cc1Nc1ccc3c(c1)OCO3)OCO2 [Example 187] | 82.2 ± 6 |
| COc1ccc(Nc2ccc3[nH]cc(C4CCN(C)CC4)c3c2)cc1OC [Example 100] | 66.6 ± 1.3 |
| CNC1CCc2[nH]c3ccc(Nc4ccc(OC)c(OC)c4)cc3c2C1 (stereo not shown) [Example 106] | 86.4 ± 3.8 |
| Cn1c2c(c3ccc(Nc4ccc5c(c4)OCCO5)cc31)CNCC2 [Example 202] | 86.1 ± 1.6 |
| c1ccc2c(c1)CCC2Nc1ccc2c(C3CCNCC3)c[nH]c2c1 (stereo not shown) [Example 94] | 94.4 ± 3.6 |
| CNC1CCc2c(c3ccc(Nc4ccc(F)c(F)c4)cc3n2C)C1 (stereo not shown) [Example 140] | 93.8 ± 0.6 |
| CN(C)C1CCc2[nH]c3ccc(Nc4ccc(N5CCOCC5)cc4)cc3c2C1 (stereo not shown) [Example 76] | 96.9 ± 2.3 |
| Cn1c2c(c3ccc(Nc4ccc5c(c4)OCCO5)nc31)CC(OCCF)CC2 (stereo not shown) [Example 130] | 91.6 ± 0.2 |
| CN1CCC(c2c[nH]c3cc(Nc4ccc(F)c(F)c4)ccc23)CC1 [Example 22] | 84.5 ± 6.8 |

| Compound | inhibition at 330 µM [%] |
| --- | --- |
| CNC1CCc2[nH]c3ccc(NC4CCN(C)CC4)cc3c2C1 (stereo not shown) [Example 109] | 63.6 ± 2 |
| CNC1(C)CCc2c(c3ccc(Nc4ccc(F)c(F)c4)nc3n2C)C1 (stereo not shown) [Example 89] | 89.6 ± 5 |
| CN1CCN(c2ccc(Nc3ccc4[nH]c5c(c4c3)CC(N(C)C)CC5)cc2)CC1 (stereo not shown) [Example 77] | 98 ± 0.6 |
| Cn1cc(C2CCNCC2)c2ccc(Nc3ccc(N4CCOCC4)cc3)nc21 [Example 71] | 90.7 ± 3 |
| COc1ccc(Nc2ccc3[nH]c4c(c3c2)CC(N(C)C)CC4)cc1OC (stereo not shown) [Example 88] | 96.9 ± 2.6 |
| c1cc2c(C3CCNCC3)c[nH]c2nc1NCC1CCNCC1 [Example 50] | 67.5 ± 0.1 |
| CN1CCc2ccc(Nc3ccc4c(c3)c3c(n4C)CCS(=O)(=O)C3)cc2C1 [Example 180] | 50.2 ± 0.9 |
| Cn1cnc2ccc(Nc3ccc4c5c(n(C)c4n3)CCCC5)cc21 [Example 172] | 68.3 ± 0.8 |
| CN1CCC(c2cn(C)c3nc(Nc4ccc5c(c4)OCCO5)ccc23)CC1 [Example 150] | 83.9 ± 1.5 |
| CN1CCC(c2c[nH]c3cc(Nc4ccc5c(c4)OCCCO5)ccc23)CC1 [Example 78] | 75 ± 1.4 |
| Fc1cc(F)cc(Nc2ccc3cc[nH]c3n2)c1 [Example 6] | 60.1 ± 3.5 |
| COc1ccc(Nc2ccc3c(C4CCN(C)CC4)cn(C)c3n2)cc1F [Example 105] | 96.7 ± 0.7 |
| COc1cc(Nc2ccc3c(C4CCN(C)CC4)c[nH]c3c2)ccc1F [Example 114] | 82.2 ± 1.6 |
| COc1cc(Nc2ccc3c(C4CCNCC4)cn(C)c3c2)ccc1F [Example 112] | 91.3 ± 1.3 |
| c1cc2c(cc1Nc1ccc3c(C4CCNCC4)c[nH]c3n1)CCC2 [Example 40] | 94.8 ± 1 |
| CNC1CCc2c(c3cc(Nc4ccc(OC)c(OC)c4)cnc3n2C)C1 (stereo not shown) [Example 135] | 51.9 ± 5.5 |
| CNC1CCc2[nH]c3ccc(Nc4ccc(F)c(OC)c4)cc3c2C1 (stereo not shown) [Example 116] | 89 ± 3.6 |
| Cn1cc(C2CCNCC2)c2cc(Nc3ccc4c(C5CCNCC5)cn(C)c4c3)ccc21 [Example 53] | 96 ± 2.1 |
| CNC1CCc2c(c3ccc(Nc4ccc5c(c4)NC(=O)CO5)nc3n2C)C1 (stereo not shown) [Example 86] | 96.6 ± 0.7 |
| Fc1ccc(Nc2ccc3c(C4CCNCC4)c[nH]c3n2)cc1F [Example 60] | 83.1 ± 3.4 |
| COc1cc(Nc2ccc3c(c2)c2c(n3C)CCS(=O)(=O)C2)ccc1C [Example 178] | 35.4 ± 5.9 |
| CNC1CCc2c(c3ccc(Nc4ccc(F)c(F)c4)nc3n2C)C1 (racemic) [Example 26, N^2-(3,4-difluorophenyl)-N^8,9-dimethyl-6,7,8,9-tetrahydro-5H-pyrido[2,3-b]indole-2,6-diamine hydrogenchloride] | 93.4 ± 3.9 |

Same assay, conditions: IC50 μM 1st assay, ThT assay, dilution series 330 μM to 0.08 μM; 1st assay

| IC50 [µM] | Compound |
| --- | --- |
| 13.4 | CNC1CCc2c(c3ccc(Nc4ccc(F)c(F)c4)nc3n2C)C1 (single isomer, unassigned) [Example 214b] |
| 6.6 | CNC1CCc2c(c3ccc(Nc4ccc5c(c4)OCCO5)nc3n2C)C1 (single isomer, unassigned) [Example 217b] |
| 12.2 | CNC1CCc2c(c3ccc(Nc4ccc(F)c(F)c4)nc3n2C)C1 (racemic) [Example 26, N^2-(3,4-difluorophenyl)-N^8,9-dimethyl-6,7,8,9-tetrahydro-5H-pyrido[2,3-b]indole-2,6-diamine hydrogenchloride] |

Same assay, conditions: IC50 μM 2nd assay, ThT assay, dilution series 330 μM to 0.08 μM; 2nd assay

| IC50 [µM] | Compound |
| --- | --- |
| 7.7 | CNC1CCc2c(c3ccc(Nc4ccc(F)c(F)c4)nc3n2C)C1 (single isomer, unassigned) [Example 214b] |
| 5.9 | CNC1CCc2c(c3ccc(Nc4ccc5c(c4)OCCO5)nc3n2C)C1 (single isomer, unassigned) [Example 217b] |
| 16.8 | CNC1CCc2c(c3ccc(Nc4ccc(F)c(F)c4)nc3n2C)C1 (racemic) [Example 26, N^2-(3,4-difluorophenyl)-N^8,9-dimethyl-6,7,8,9-tetrahydro-5H-pyrido[2,3-b]indole-2,6-diamine hydrogenchloride] |
